Measured values: US20250188110A1, “SPECIFIC SMALL MOLECULE INHIBITORS THAT BLOCK KMT9 METHYLTRANSFERASE ACTIVITY AND FUNCTION” (ALBERT-LUDWIGS-UNIVERSITÄT FREIBURG, priority 2021, published 2025)

Key:
KMT9 [1] = target: T1, KMT9 (Homo sapiens, UniProt Q9Y5N5); assay: Microscale thermophoresis (MST) KMT9 binding; settings: microscale thermophoresis, His-tag labelled KMT9 (20 nM); read-out: MST
T1 sequence (Q9Y5N5 1-214): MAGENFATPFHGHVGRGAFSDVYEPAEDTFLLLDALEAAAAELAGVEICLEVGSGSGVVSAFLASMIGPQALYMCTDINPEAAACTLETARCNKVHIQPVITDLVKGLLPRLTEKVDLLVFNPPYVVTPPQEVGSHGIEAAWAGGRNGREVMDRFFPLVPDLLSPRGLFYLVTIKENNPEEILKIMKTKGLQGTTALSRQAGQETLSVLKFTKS
T1 sequence (Q9UI30 1-120 isoform Q9UI30-2 partner): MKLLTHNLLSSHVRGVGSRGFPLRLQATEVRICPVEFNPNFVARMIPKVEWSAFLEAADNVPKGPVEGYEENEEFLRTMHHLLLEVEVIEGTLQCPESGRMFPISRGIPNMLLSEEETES
Procedure: To determine the binding affinity of the compounds according to the present invention and KMT9, microscale thermophoresis (MST) analysis was performed with a NanoTemper Monolith NT.115 instrument (NanoTemper Technologies GmbH). KMT9 was labelled with a RED-Tris-NTA labelling kit (NanoTemper Technologies GmbH) based on the manufacturer's instructions. Buffer including 25 mM HEPES (pH 7.5), 100 mM NaCl, 1 mM DTT and 0.05% Tween was used for the reaction buffer. Varying concentrations of the tested compounds of formula (I) as indicated in Table 1 were titrated against His-tag labelled KMT9 proteins (20 nM). Samples were loaded into standard Capillaries (NanoTemper Technologies GmbH) and MST measurements were performed using 40% MST power and 100% LED power. For each set of binding experiments, MST measurement was carried out with Binding Affinity module in MO.Control program under Nano-RED Excitation. Datasets were processed with the MO.Affinity Analysis software (NanoTemper Technologies GmbH).
For the results of the microscale thermophoresis (MST) assay shown as “MST” in Table 1, “A” represents a Kd of equal to or less than 10 nM (Kd≤10 nM); “B” represents a Kd of greater than 10 nM and equal to or less than 100 nM (10 nM<Kd<100 nM); “C” represents a Kd of greater than 100 nM and equal to or less than 1000 nM (100 nM<Kd ≤ 1000 nM); “D” represents a Kd of greater than 1000 nM (1000 nM<Kd).

KMT9 [2] = target: T1, KMT9; assay: KMT9 thermal shift assay (SyproOrange); type: binding; settings: ΔTm; 500 µM compound, 2 μM KMT9, 5X SO; read-out: Thermal shift
Procedure: The assay was carried out in 96-well Hard-Shell PCR plates (Bio-Rad Laboratories Inc.). Assay buffer consisted of 50 mM BTP, 1 mM MgCl2 and 1 mM DTT at a pH of 8.5 (adjusted using 1 M HCl and 1 M NaOH). 20X inhibitor stock (in DMSO), 2X enzyme stock and 4X SyproOrange (SO) stock (both in assay buffer) were prepared. 1 μL of 20X compound, 4 μL of assay buffer, 10 μL of 2X KMT9 and 5 μL of 4X SO were pipetted. For the no-compound control, 20X inhibitor stock was replaced by DMSO. The final volume was 20 μL. The plate was spun down at 700 rpm for 1 min using a Hettich UNIVERSAL 320 centrifuge and incubated at 25° C., shaking at 600 rpm. After incubation, the plate was spun down for 1 min at 700 rpm and measurement was conducted using a CFX96 Touch Real-Time PCR Detection System (Bio-Rad Laboratories Inc.). The plate was equilibrated at 20° C. for 4 min and then heated stepwise at a rate of 1° C. per 15 s until 95° C. After every step, fluorescence was measured in FRET mode. Calculation of melting points was conducted by a Boltzman sigmoidal model using GraphPad Prism 7.0.
For the results of the thermal shift assay shown as “Thermal shift” in Table 1, “++++” represents a ΔTm of greater 20 K, “+++” represents a ΔTm of greater than 15 K and less than or equal to 20 K (15 K<ΔTm≤20 K); “++” represents a ΔTm of greater than 10 K and less than or equal to 15 K (10 K<ΔTm ≤ 15 K); “+” represents a ΔTm of equal to or less than 10 K (ΔTm≤10 K).

KMT9 [3] = target: T1, KMT9; assay: KMT9 methyltransferase inhibition assay, 3H-SAM scintillation (entries 1-154); type: biochemical; settings: entries 1-154: 3H-SAM assay, 25 nM KMT9, 5 μM ETF1
Procedure: The assay was carried out in 0.5 mL Eppendorf tubes in duplicates. Assay buffer consisted of 50 mM BTP, 1 mM MgCl2, 1 mM DTT and 0.01% Triton-X^100 at a pH of 8.5 (adjusted using 1 M HCl and 1 M NaOH). 20X inhibitor stock (in DMSO), 2X enzyme stock and 4X substrate mix (both in assay buffer) were prepared. The substrate mix consisted of Tritium-labelled S-adenosylmethionine (3H-SAM), S-adenosylmethionine (SAM) and eukaryotic peptide chain release factor subunit1 (Homo sapiens, residues 140-275)(ETF1). Final assay concentrations were set to 25 nM KMT9, 0.3 μM 3H-SAM, 0.7 µM SAM and 5 μM ETF1. […] 5 μL of 4x substrate mix was added to initiate the reaction. The final reaction volume was 20 μL. For the positive control, the compound of formula (I) was replaced by DMSO; for the negative control, the compound of formula (I) was replaced by DMSO and KMT9 was replaced by assay buffer. The reaction mix was incubated in an Eppendorf thermomixer comfort at 30° C. for 2 h, shaking at 300 rpm. The reaction was quenched using 5 μL 50% trichloroacetic acid (TCA) and incubated at 25° C. for 5 minutes. 22 μL of the mixture was transferred into 96-well MultiScreen@HTS FB filter plates (Merck KGaA, Darmstadt, Germany) and washed four times with 10% TCA and two times with 100% ethanol. The plate was dried overnight, the filters were transferred into individual 6 mL Pony Vials (Perkin Elmer Inc, Waltham, MA, USA) and incubated in 3 mL of Ultima Gold scintillation cocktail (Perkin Elmer Inc, Waltham, MA, USA) for 30 minutes. The scintillation signal was measured for 3x 1 min using TriCarb 2910 TR (Perkin Elmer) scintillation counter in 3H CPM mode (LL: 0, UL: 18.6). Inhibition was calculated using the following formula: […]
With xc: signal of compound, Xpos: mean signal of positive control, Xneg: mean signal of negative control. Data fitting was carried out by GraphPad 7.0 using nonlinear fit ([Inhibitor]vs. response-variable slope (four parameters)).
For the results of the methyltransferase inhibition assay shown as “Inhibition” in Table 1, “I” represents an IC50 less than 0.1 μM, “II” represents an IC50 equal or higher than 0.1 μM and less than 1 μM, “III” represents an IC50 equal or higher than 1 µM and less than 10 µM and “IV” represents an IC50 equal or higher than 10 µM

| Kd (KMT9 [1]) [nM] | ΔTm at 500 µM (KMT9 [2]) [°C] | IC50 (KMT9 [3]) [nM] | Compound |
| --- | --- | --- | --- |
| > 1000 | ≤ 10 | > 10000 | COCCn1cc(COc2ccc(CNCCCNC[C@H]3O[C@@H](n4cnc5c(N)ncnc54)[C@H](O)[C@@H]3O)cc2)nn1 [293 (190), (2R,3R,4S,5R)-2-(6-amino-9H-purin-9-yl)-5-(((3-((4-((1-(2-methoxyethyl)-1/-1,2,3-triazol-4-yl)methoxy)benzyl)amino)propyl)amino)methyl)tetrahydrofuran-3,4-diol] |
| 100 to 1000 | ≤ 10 | > 10000 | COCCn1cc(-c2ccc(CCNCCCNC[C@H]3O[C@@H](n4cnc5c(N)ncnc54)[C@H](O)[C@@H]3O)cc2)nn1 [295 (192), (2R,3R,4S,5R)-2-(6-amino-9H-purin-9-yl)-5-(((3-((4-(1-(2-methoxyethyl)-1H-1,2,3-triazol-4-yl)phenethyl)amino)propyl)amino)methyl)tetrahydrofuran-3,4-diol] |
| 100 to 1000 | ≤ 10 | 1000 to 10000 | Nc1ncnc2c1ncn2[C@@H]1O[C@H](C(=O)NCCCNCCc2ccc(Oc3ccccc3)cc2)[C@@H](O)[C@H]1O [297 (194), (2S,3S,4R,5R)-5-(6-amino-9H-purin-9-yl)-3,4-dihydroxy-N-(3-((4-phenoxyphenethyl)amino)propyl) tetrahydrofuran-2-carboxamide] |
| 100 to 1000 | 10 to 15 | 1000 to 10000 | Nc1ncnc2c1ncn2[C@@H]1O[C@H](C(=O)NCCCNCCc2cccc(Oc3ccccc3)c2)[C@@H](O)[C@H]1O [299 (196), (2S,3S,4R,5R)-5-(6-amino-9H-purin-9-yl)-3,4-dihydroxy-N-(3-((3-phenoxyphenethyl)amino)propyl) tetrahydrofuran-2-carboxamide] |
| 100 to 1000 | ≤ 10 | > 10000 | Nc1ncnc2c1ncn2[C@@H]1O[C@H](C(=O)NCCCNCCc2ccccc2)[C@@H](O)[C@H]1O [301 (198), (2S,3S,4R,5R)-5-(6-amino-9H-purin-9-yl)-3,4-dihydroxy-N-(3-(phenethylamino)propyl) tetrahydrofuran-2-carboxamide] |
| > 1000 | ≤ 10 | > 10000 | Nc1ncnc2c1ncn2[C@@H]1O[C@H](C(=O)NCCCNC(=O)Cc2ccccc2)[C@@H](O)[C@H]1O [303 (200)] |
| > 1000 | ≤ 10 | > 10000 | CCC(=O)NCCCNC(=O)[C@H]1O[C@@H](n2cnc3c(N)ncnc32)[C@H](O)[C@@H]1O [305 (204), (2,3S,4R,5R)-5-(6-amino-9//-purin-9-yl)-3,4-dihydroxy-N-(3-propionamidopropyl) tetrahydrofuran-2-carboxamide] |
| > 1000 | ≤ 10 | > 10000 | CCNC(=O)NCCCNC(=O)[C@H]1O[C@@H](n2cnc3c(N)ncnc32)[C@H](O)[C@@H]1O [307 (206), (2S,3S,4R,5R)-5-(6-amino-9H-purin-9-yl)-N-(3-(3-ethylureido)propyl)-3,4-dihydroxytetrahydrofuran-2-carboxamide] |
| > 1000 | 10 to 15 | > 10000 | CNc1ncnc2c1ccn2[C@@H]1O[C@H](CNCCCNCCc2ccccc2)[C@@H](O)[C@H]1O [309 (208), (2R,3R,45,5R)-2-(4-(methylamino)-7H-pyrrolo[2,3-d]pyrimidin-7-yl)-5-(((3-(phenethylamino)pronyl)amino)methyl) tetrahydrofuran-3.4-diol] |
| > 1000 | ≤ 10 | > 10000 | CNc1ncnc2c1c(C)cn2[C@@H]1O[C@H](CNCCCNCCc2ccccc2)[C@@H](O)[C@H]1O [311 (210), (2R,3R,45,5R)-2-(5-methyl-4-(methylamino)-7//-pyrrolo[2,3-a]pyrimidin-7-yl)-5-(((3-(phenethylamino)propyl)amino)methyl)tetrahydrofuran-3,4-diol] |
| > 1000 | ≤ 10 | > 10000 | CCC(=O)NCCCNC[C@H]1O[C@@H](n2cnc3c(N)ncnc32)[C@H](O)[C@@H]1O [313 (212), N-(3-((((2R,3S,4R,5R)-5-(6-amino-9//-purin-9-yl)-3,4-dihydroxytetrahydrofuran-2-yl)methyl)amino)propyl)propionamide] |
| > 1000 | ≤ 10 | > 10000 | CCC(=O)NCCNC[C@H]1O[C@@H](n2cnc3c(N)ncnc32)[C@H](O)[C@@H]1O [315 (216), N-(2-((((2R,3S,4R,5R)-5-(6-amino-9H-purin-9-yl)-3,4-dihydroxytetrahydrofuran-2-yl)methyl)amino)ethyl)propionamide] |
| 10 to 100 | 15 to 20 | 100 to 1000 | Nc1ncnc2c1c(Br)cn2[C@@H]1C[C@H](CNCCCNCCc2cccc(F)c2)[C@@H](O)[C@H]1O [317 (218), (1R,2S,3R,5R)-3-(4-amino-5-bromo-7H-pyrrolo[2,3-d]pyrimidin-7-yl)-5-(((3-((3-fluorophenethyl)amino)propyl)amino)methyl) cyclopentane-1,2-diol] |
| 10 to 100 | 15 to 20 | 100 to 1000 | Nc1ncnc2c1c(Br)cn2[C@@H]1C[C@H](CNCCCNCCc2ccc(F)cc2)[C@@H](O)[C@H]1O [319 (220), (1R,2S,3R,5R)-3-(4-amino-5-bromo-7H-pyrrolo[2,3-d]pyrimidin-7-yl)-5-(((3-((4-fluorophenethyl)amino)propyl)amino)methyl) cyclopentane-1,2-diol] |
